The values below are quoted from earlier work in patent US11369498B2, “Stent and stent delivery system with improved deliverability” (MT Acquisition Holdings LLC, priority 2010, dated 2022).

The conditions of this series: 25 C.

Turning to `[Cl-].[Na+]` [NaCl], the Water sol is recorded as 35.7 g/100 g.
